Assay results reported in patent publication EP0309566B1, “STLV-III-RELATED POLYPEPTIDES, DIAGNOSTIC SYSTEMS AND ASSAY METHODS” (JOHNSON AND JOHNSON, priority 1987, dated 1994).

Legend:
antibodies against HIV-1 = assay: Specificity ELISA (Example 12, Figure 3), HIV-1 antibody positive sera; type: binding, human; settings: 20 sera with antibodies against HIV-1; positive O.D. above 0.150
Excerpt: In the Figures forming a portion of the disclosure of this invention: • Figure 1 illustrates a portion of the STLV-IIImac TMP amino acid residue sequence. The sequence is shown from left to right and in the direction of amino-terminus to carboxy-terminus in a single-letter code. The residue positions have been numbered as illustrated from 1-33. • Figure 2 illustrates, in a manner similar to Figure 1, a portion of the amino acid residue sequence of the HIV-1 TMP and represent gp41 amino acid residues […] as described in Ratner et al., Nature, 313:277-283 (1985). However, for ease of discussion, those residue positions have been renumbered as illustrated from 1-32. • Figure 3 contains 2 panels illustrating antibody determinations using a diagnostic system of this invention to assay (a) 20 sera from individuals in Guinea-Bissau previously determined to have antibodies against HIV-related viruses (West Africans), (b) 20 sera from HIV-1-infected individuals and (c) 20 sera from blood donors without antibodies to HIV-1 or HIV-2. Sera were considered positive (closed symbols) when they produced optical density (O.D.) values above 0.150 (the mean O.D. of negative samples plus 6 standard deviations). Negative sera are represented by open symbols. […]

antibodies to HIV-2 = assay: Specificity ELISA (Example 12, Figure 3), HIV-2 antibody positive sera; type: binding, human; settings: 20 sera containing antibodies to HIV-2 but not to HIV-1 TMP gp41 (West Africans); positive O.D. above 0.150

AIEKYLEDQAQLNAWCAFRQVC [p80]
immunoreaction with sera (antibodies against HIV-1): with one exception, produced no substantial immunoreaction
immunoreaction with sera (antibodies to HIV-2): pronounced reactions
